{
  "source": "paper PMC7524040",
  "about": "(Biochemistry, 2020)",
  "origin": "cited, not measured here",
  "key": {"[1]": {"system": "cardiac heteromeric Kir3.1/3.4 channel", "details": "heteromeric Kir3.1/Kir3.4 channels"}},
  "note": "Ends that are not written are not given here.",
  "data": [
    {"substance": "Tertiapin (ALCNCNRIIIPHMCWKKCGKK; not fully specified (C-terminus, bridges); ends and bridges not checked; UniProt P56587 1-21, looked up) [TPN]", "values": [
      {"measurement": "IC50", "setting": "native IKACh channel", "result": 30, "unit": "nM"},
      {"measurement": "decrease in the inhibitory action after air oxidation of M13", "setting": "[1]", "result": "4- to 5 fold"}
    ]}
  ]
}
